Data set [1] is described as follows: Biological activity of the cis-isomer. The note with it: in words, cis/trans comparison.
For another data set, the system named is blood pressure. Nature of the data set: Fall in blood pressure in vivo, Table 1. Also noted: species or system cat. The following applies: iv; for ED50: Felis catus, read-out: Fall blood pressure ED50 (iv); for Fall blood pressure EPMR: equipotent molar ratio relative to ACh. From the text:
(§1) cat mice cat Guinea pig ileum
(§2) *with 95% confidence limits (Litchfield et al, 1949)
(§3) **EPMR: equipotent molar ratio relative to ACh. nmole: nannomoles

A short description of another data set: Anticholinergic activity. The note with it: in words.
The subject of data set [2] is mice. Nature of the data set: Induced tremors in mice, Table 1. The format is in vivo. The following applies: Mus musculus, ip, read-out: Induced tremors ED50 (ip).
Text: as §1, §2

The test system of another data set is Guinea pig ileum. Nature of the data set: Guinea pig ileum induced contraction in vitro, Table 1. The format is cell-based. The following applies: equipotent molar ratio relative to ACh.
Text: as §1
(iv) induced contraction
as §3

Data set [3] in a line: Acute toxicity in mice, Table 2. The note with it: mouse, in vivo. From the text:
(§4) *with 95% confidence limits, Litchfield & Wilcoxon, (1949).

Data set [4] has as its system mice. Nature of the data set: Tremors (tremorigenic activity) in mice, Table 2. The format is in vivo. The note with it: Mus musculus, ip, read-out: Tremors ED50 (ip).
Text: (§5) Acute Toxicity, tremorigenic and sialigenic
as §4

The subject of data set [5] is mice. Nature of the data set: Salivation (sialigenic activity) in mice, Table 2. Type of data set: in vivo. The note with it: Mus musculus, ip, read-out: Salivation ED50 (ip).
Text: as §5, §4
**Chiang & Leaders, 1971

Data set [6] relates to mice. The following applies: Chiang & Leaders, 1971; cited from earlier work.
For another data set, the target named is T1, Guinea-pig ileum (Cavia porcellus, UniProt H0W1Z3).
T1 construct: Guinea-pig ileum, log Ki; from tissue; host or cells: guinea-pig ileum
Nature of the data set: Antagonism in guinea-pig ileum (log Ki), Table 3. Type of data set: cell-based. The note with it: printed as log Ki (negative).

For another data set, the system named is SCG. Nature of the data set: SCG (cat), antagonism to McN-A-343 induced contraction of NM. The format is in vivo. From the text: |induced contraction of NM
The nature of a further data set: LD50 in mice, Table 3. The following applies: mouse, in vivo, sc.
Another data set has as its system mydriatic activity. Nature of the data set: Relative mydriatic activity, Table 3. The note with it: atropine sulphate = 1. Type of data set: in vivo.
In data set [7] the test system is Oxotromorine induced salivation. Nature of the data set: Antagonism to oxotremorine induced salivation. The format is in vivo, Mice. The note with it: Mus musculus, sc. Here is the method: (§6) *With 95% confidence limits (Litchfield and Wilcoxon, 1949).
**Oxotromorine, 170 μg/kg, ip (1.15 ED50) induced salivation.
(§7) ^+ R1 =R2 =.PHI.,HCl is injected 20 min. prior to […]

Data set [8] has as its system Oxotromorine induced tremors. Nature of the data set: Antagonism to oxotremorine induced tremors. Type of data set: in vivo, Mice. The following applies: Mus musculus, sc. Here is the method: as §6, §7
For data set [9], the system named is Oxotromorine induced tremors and salivation. Nature of the data set: CNS/PNS activity (ED50 blockade of tremors / ED50 blockade of salivation). Type of data set: in vivo, Mice. The note with it: ED50 for blockade of tremors divided by ED50 for blockade of salivation; 95% confidence limits.
Text: as §6

For data set [10], the system named is Physostigmine induced lethality. Nature of the data set: Antagonism to physostigmine induced lethality. The format is in vivo, Mice. The note with it: Mus musculus, sc.
Text: as §6

The test system of data set [11] is autonomic ganglionic and central muscarinic receptors. Nature of the data set: Cholinergic stimulant activity and specificity. The following applies: in words.
For data set [12], the system named is enzyme which desactivates acetylcholine. Nature of the data set: Stability to the enzyme which desactivates acetylcholine. The format is in vitro ADME. The following applies: in words.

Molecules are shown by their SMILES. “And” between values parts separate entries of the source, which are not always exact repeats. Identical values can stand only once. Counter-ions that a name gives are not always drawn. Like-named read-outs stand apart in the source and are kept apart here.

T1 sequence (H0W1Z3 1-590): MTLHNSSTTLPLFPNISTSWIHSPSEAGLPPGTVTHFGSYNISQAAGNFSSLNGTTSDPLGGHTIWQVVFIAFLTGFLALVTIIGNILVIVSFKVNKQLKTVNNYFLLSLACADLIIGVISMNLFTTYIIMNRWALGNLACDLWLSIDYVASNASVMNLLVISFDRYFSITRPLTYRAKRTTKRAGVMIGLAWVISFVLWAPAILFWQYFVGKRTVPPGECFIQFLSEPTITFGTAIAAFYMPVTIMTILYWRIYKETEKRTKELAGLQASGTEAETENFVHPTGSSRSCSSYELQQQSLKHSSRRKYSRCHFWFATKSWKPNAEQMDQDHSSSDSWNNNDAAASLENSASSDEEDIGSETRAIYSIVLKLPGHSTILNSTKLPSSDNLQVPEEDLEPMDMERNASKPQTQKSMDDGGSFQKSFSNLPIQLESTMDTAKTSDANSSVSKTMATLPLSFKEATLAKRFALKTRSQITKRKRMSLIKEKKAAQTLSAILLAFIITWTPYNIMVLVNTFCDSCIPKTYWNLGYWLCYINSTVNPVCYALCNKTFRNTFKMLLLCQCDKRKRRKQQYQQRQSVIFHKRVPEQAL

Turning to `CC1OCC2(CN3CCC2CC3)O1` (single isomer, unassigned; isomer 2) [cis-isomer, 2-methyl spiro (1,3-dioxolane-4,3') quinuclidine], the “biological activity of the cis-isomer” value in [1] is “greater biological activity”.

As usually defined, the ED50 is the dose that gives a 50% effect, or the effect in half of the subjects. Regarding `CC(=O)OCC[N+](C)(C)C` [Acetylcholine], the ED50 in the data set on blood pressure (cat) was 0.00016 µmol/kg.

For `c1ccc(C2(c3ccccc3)OCC3(CN4CCC3CC4)O2)cc1` (stereo not drawn) [Example 3, 2,2-diphenyl spiro (1,3-dioxolane-4,3')quinuclidine], in “Anticholinergic activity”, the anticholinergic activity result is “powerful anticholinergic agent”.

As usually defined, the LD50 is the dose at which mortality reaches 50%. Low readings indicate greater toxicity, high ones lower toxicity. Turning to `CC(=O)OC1CN2CCC1CC2` (stereo not drawn) [3-Acetoxyquinuclidine], the 50% effective dose (ED50) with mice [2] is 7.5 mg/kg and 36.5 µmol/kg; in the data set on blood pressure it was 0.0002 mg/kg and 0.001 µmol/kg; in the data set with mice [4], 7.5 mg/kg and 36.5 µmol/kg; in the data set on mice [5], 1.8 mg/kg and 8.8 µmol/kg. Besides, in the data set on blood pressure (cat), the “Fall blood pressure EPMR” value is recorded as 6.25. For the same molecule, in the data set with Guinea pig ileum, the “Guinea pig ileum induced contraction EPMR” value was 14. In [3] (sc), this molecule returned an LD50 of 112 mg/kg. In the data set with mice [6], the “Salivation ED50 (ip)” value is 2.9 mg/kg.

As a reminder, the Ki is a dissociation constant, usually derived from enzyme kinetics or from competition with a known ligand. In turn, `c1ccc(C2(c3ccccc3)OCC3(CN4CCC3CC4)O2)cc1` (stereo not drawn) [I,R1 =R2 =phenyl,HCl, 2,2-diphenyl spiro (1,3-dioxolane-4,3')quinuclidine] had a Ki on Guinea-pig ileum of 0.251 nM. For the same molecule, the “antagonism to McN-A-343 induced contraction of NM ED50 (ia)” value with SCG was determined as 0.5 µmol. In the data set “LD50 in mice, Table 3”, this molecule registered an LD50 of 40 mg/kg. This molecule also had a Relative mydriatic activity in the data set on mydriatic activity of 1.5. Besides, the values for the ED50 in [7], in data set [8] and in [10] were 0.28 µmol/kg, 0.31 µmol/kg and 0.2 µmol/kg, respectively. In data set [9], the CNS/PNS activity is listed as 1.1(0.77-1.56).

Consider `CC1OCC2(CN3CCC2CC3)O1` (stereo not drawn) [I,R1 =H,R2 =-CH3.HCl, 2-methyl spiro (1,3-dioxolane-4,3') quinuclidine], for which the ED50 in the data set on mice [2] (mice) was 4.5 mg/kg and 20.5 µmol/kg; in the data set with blood pressure (cat), 0.0066 mg/kg and 0.0301 µmol/kg; with mice [4] (mice), 4.5 mg/kg and 20.5 µmol/kg; in the data set on mice [5] (mice), 3 mg/kg and 13.7 µmol/kg. Besides, the “Fall blood pressure EPMR” value in the data set on blood pressure (cat) is reported as 188. Moreover, the “Guinea pig ileum induced contraction EPMR” value in the data set on Guinea pig ileum worked out at 240. In addition, the LD50 in [3] (sc) stood at 220 mg/kg.

`O=C1CCCN1CC#CCN1CCCC1` [Oxotremorine] came in with a median lethal dose (LD50) in data set [3] (ip) of 5 mg/kg. In addition, the ED50 is 0.14 mg/kg and 0.73 µmol/kg with mice [4] (mice); 0.12 mg/kg and 0.63 µmol/kg in the data set on mice [5] (mice).

For `CN1[C@@H]2CC[C@H]1CC(OC(=O)C(CO)c1ccccc1)C2` (stereo partly drawn) [Atropine Sulphate, reference compound], the “antagonism to McN-A-343 induced contraction of NM ED50 (ia)” value with SCG amounted to 1.4 µmol. In addition, the results for the ED50 in data set [7] and in data set [8] were 0.039 µmol/kg and 1 µmol/kg, respectively.

With `CC1OCC2(CN3CCC2CC3)O1` (stereo not drawn) [Example 1, 2-Methyl spiro (1,3-dioxolane-4,3')Quinuclidine], in data set [11], the cholinergic stimulant activity result was “specific and powerful cholinergic stimulant”; the “specificity towards autonomic ganglionic and central muscarinic receptors” value was “high degree of specificity”. The “destruction by the enzyme which desactivates acetylcholine” value in data set [12] is recorded as “not destroyed by the enzyme which desactivates acetylcholine”.

With `CC(=O)OC(C)C[N+](C)(C)C` (stereo not drawn) [Acetyl-β-methyl choline], the “Guinea pig ileum induced contraction EPMR” value with Guinea pig ileum amounted to 3.6.

The values above are taken from patent publication US4104397A, “Spiro (1,3-dioxolane-4,3') quinuclidine compounds” (The Purdue Frederick Company, priority 1975, dated 1978).
